Where two headings read alike, the source gives them in different places.
Assays:
Assay type in all cases: binding
[1] = tested on: postmortem human brain Aβ-amyloid sites
From the text: (§1) The brain sections were air dried, exposed overnight on a phosphor film, and then placed on the Phosphor Autoradiographic Imaging System/Cyclone Storage Phosphor System (Packard Instruments Co).
as §1

human Aβ-amyloid plaques = test: 3H-PIB competition autoradiography on postmortem AD brain sections; conditions: 10 μM competitor; postmortem AD human brain slices; preliminary studies
Experimental: ^3H-PIB Binding: Human hippocampus sections (7 μm thick) were preincubated in 10% alcohol PBS buffer for 10 minutes. The brain sections were placed in a glass chamber and incubated with [^3H]-PIB (2 μCi/cc) in 10% alcohol PBS buffer, pH 7.4 at 37° C. for 1 hr. The slices were then washed with cold 10% alcohol PBS buffer (2×3 mins), cold deionized water 1 min, respectively. The brain sections were air dried, exposed overnight on a phosphor film, and then placed on the Phosphor Autoradiographic imaging System/Cyclone Storage Phosphor System (Packard Instruments Co). Regions of interest (ROIs) were drawn on the slices and the extent of binding of ^3H-PIB was measured with DLU/mm2 using the OptiQuant acquisition and analysis program (Packard Instruments Co).
Since FDGBTA is an analog of PIB, which is known to bind to human Aβ-amyloid plaques, the inventors tested competition of both PIB and FDGBTA with postmortem human brain Aβ-amyloid sites labeled with ^3H-PIB as is illustrated in Panel A of FIG. 5, with the corresponding photomicrographs in Panel B of FIG. 5.

Aβ-Amyloid plaques = test: Human brain homogenate assay, displacement of 3H-PIB; conditions: 3H-PIB displacement curve; rFDGBTA 10^−11 to 10^−4 M; PBS buffer, 10% alcohol, pH 7.4
Experimental: rFDGBTA: Reductive amination was carried out at room temperature using an anhydrous solution of molecular sieves, methanol and acetic acid. The yield for the reduced rFDGBTA was 94%. Human brain homogenate assay of rFDGBTA for Aβ-Amyloid plaques was investigated. The homogenate was suspended in different concentrations of rFDGBTA (10^−11 to 10^−4M) in the assay buffer (PBS buffer, 10% alcohol, pH 7.4). Nonspecific binding was determined by including […]. Total assay volume was 0.25 ml.

## 2-^18F-Fluorodeoxyglucose [18F-FDG]
[1]
  binding to AD brain grey matter / Aβ-amyloid plaques (in words): did not exhibit any binding

## [11CH3]Nc1ccc(-c2nc3ccc(O)cc3s2)cc1 [11C-PIB]
[1]; postmortem AD human brain sections, autoradiography
  binding to AD brain grey matter / Aβ-amyloid plaques (in words): significant binding
[1]; postmortem human hippocampus sections, autoradiography
  ratio of binding, AD brain versus control subjects (grey matter): 6

## OCC1OC(Nc2ccc(-c3nc4ccc(O)cc4s3)cc2)C(F)C(O)C1O (centres unmarked) [FDGBTA]
Human Aβ-amyloid plaques
  reduction of 3H-PIB binding in the grey matter areas: 80%

## OCC(O)C(O)C(O)C(F)CNc1ccc(-c2nc3ccc(O)cc3s2)cc1 (centres unmarked) [rFDGBTA]
Aβ-Amyloid plaques
  binding compared to PIB (times weaker): ~100 times
